Here are results for 28 compounds from paper PMC6759796, “Integrating Pharmacokinetics Study, Network Analysis, and Experimental Validation to Uncover the Mechanism of Qiliqiangxin Capsule Against Chronic Heart Failure” (Frontiers in Pharmacology, 2019).

One series in a line: in vivo. The note with it: Sprague-Dawley, rat, po.
On to `COC[C@@]12CC[C@H](OC)[C@]34C(C([C@H](OC)[C@H]13)[C@]1(OC(C)=O)[C@H]3[C@@H](OC(=O)c5ccccc5)[C@](O)(C[C@H]34)[C@@H](OC)[C@@H]1O)N(C)C2` [Hypaconitine], for which the Tmax was found to be 0.33 h and the half-life was 8.01 ± 2.39 h.

For the compound `CC(C)=CCC[C@](C)(O[C@@H]1O[C@H](CO)[C@@H](O)[C@H](O)[C@H]1O)[C@H]1CC[C@]2(C)[C@@H]1[C@H](O)C[C@@H]1[C@@]3(C)CC[C@H](O[C@@H]4O[C@H](CO)[C@@H](O)[C@H](O)[C@H]4O)C(C)(C)[C@@H]3CC[C@]12C` [Ginsenoside F2], the Tmax is 0.67 h and the half-life was 6.23 ± 2.89 h.

For the compound `O=C(/C=C/c1ccc(O)c(O)c1/C=C/c1ccc(O)c(O)c1)O[C@H](Cc1ccc(O)c(O)c1)C(=O)O` [Salvianolic acid A], the Tmax came to 0.17 h and the half-life is 7.5 ± 4.92 h.

Take `C[C@@H]1O[C@@H](OC[C@H]2O[C@@H](Oc3c(-c4ccc(O)c(O)c4)oc4cc(O)cc(O)c4c3=O)[C@H](O)[C@@H](O)[C@@H]2O)[C@H](O)[C@H](O)[C@H]1O` [Rutin]: the Tmax was found to be 0.33 h and the half-life was 5.33 ± 1.27 h.

In the case of `O=C(/C=C/c1ccc(O)c(O)c1)O[C@H](Cc1ccc(O)c(O)c1)C(=O)O` [Rosmarinic acid], the Tmax was determined as 0.67 h and the half-life was 5.28 ± 1.35 h.

As for `CC(C)=CCC[C@](C)(O)[C@H]1CC[C@]2(C)[C@@H]1[C@H](O)C[C@@H]1[C@@]3(C)CC[C@H](O)C(C)(C)[C@@H]3[C@@H](O[C@@H]3O[C@H](CO)[C@@H](O)[C@H](O)[C@H]3O[C@@H]3O[C@H](CO)[C@@H](O)[C@H](O)[C@H]3O)C[C@]12C` [Ginsenoside Rf], the Tmax was found to be 0.67 h and the half-life is 6.12 ± 3.53 h.

The nature of a further series: Pharmacokinetics of 29 QLQX components in rat plasma by HPLC-MS/MS after intragastric QLQX. The conditions noted are these: Sprague-Dawley, rat, in vivo, po, […].
`CCN1C[C@]2(COC)[C@H](O)C[C@H](OC)[C@@]34[C@@H]5C[C@@]6(O)[C@H](OC(=O)c7ccccc7)[C@@H]5[C@@](OC(C)=O)([C@@H]([C@H](OC)[C@H]23)[C@@H]14)[C@@H](O)[C@@H]6OC` [Aconitine]: the Tmax amounted to 0.33 h and the half-life is 18.4 ± 5.44 h.

Staying with this series, now noted: Sprague-Dawley, rat, plasma, po, […].
As for `CC(C)=CCC[C@](C)(O[C@@H]1O[C@H](CO)[C@@H](O)[C@H](O)[C@H]1O)[C@H]1CC[C@]2(C)[C@@H]1[C@H](O)C[C@@H]1[C@@]3(C)CC[C@H](O[C@@H]4O[C@H](CO)[C@@H](O)[C@H](O)[C@H]4O[C@@H]4O[C@H](CO)[C@@H](O)[C@H](O)[C@H]4O)C(C)(C)[C@@H]3CC[C@]12C` [Ginsenoside Rd], the Tmax came out at 0.67 h and the half-life is 5.9 ± 1.14 h.

Regarding `CC(C)=CCC[C@](C)(O[C@@H]1O[C@H](CO)[C@@H](O)[C@H](O)[C@H]1O)[C@H]1CC[C@]2(C)[C@@H]1[C@H](O)C[C@@H]1[C@@]3(C)CC[C@H](O)C(C)(C)[C@@H]3[C@@H](O[C@@H]3O[C@H](CO)[C@@H](O)[C@H](O)[C@H]3O[C@@H]3O[C@@H](C)[C@H](O)[C@@H](O)[C@H]3O)C[C@]12C` [Ginsenoside Re], the Tmax came out at 0.67 ± 0.06 h and the half-life is 7.33 ± 3.45 h.

For `CC(C)=CCC[C@](C)(O[C@@H]1O[C@H](CO[C@@H]2O[C@H](CO)[C@@H](O)[C@H](O)[C@H]2O)[C@@H](O)[C@H](O)[C@H]1O)[C@H]1CC[C@]2(C)[C@@H]1[C@H](O)C[C@@H]1[C@@]3(C)CC[C@H](O[C@@H]4O[C@H](CO)[C@@H](O)[C@H](O)[C@H]4O[C@@H]4O[C@H](CO)[C@@H](O)[C@H](O)[C@H]4O)C(C)(C)[C@@H]3CC[C@]12C` [Ginsenoside Rb1], the Tmax is 0.67 h and the half-life is 9.16 ± 3.18 h.

For the compound `O=C(/C=C/c1ccc(O)c2c1[C@H](C(=O)O)[C@@H](c1ccc(O)c(O)c1)O2)O[C@H](Cc1ccc(O)c(O)c1)C(=O)O` [Lithospermic acid], the Tmax was 0.67 h and the half-life is 4.8 ± 0.89 h.

Turning to `COc1ccc(-c2coc3cc(O)ccc3c2=O)cc1` [Formononetin], the Tmax came out at 0.17 h and the half-life is 5.07 ± 2.13 h.

Regarding `O=C(O)c1ccc(O)c(O)c1` [Protocatechuic acid], the Tmax was 0.67 h and the half-life is 8.38 ± 1.02 h.

In the case of `O=c1c(O)c(-c2ccc(O)c(O)c2)oc2cc(O)cc(O)c12` [Quercetin], the Tmax amounted to 0.67 h and the half-life was 5.04 ± 0.98 h.

For `CC(C)=CCC[C@](C)(O[C@@H]1O[C@H](CO[C@@H]2O[C@@H](CO)[C@H](O)[C@H]2O)[C@@H](O)[C@H](O)[C@H]1O)[C@H]1CC[C@]2(C)[C@@H]1[C@H](O)C[C@@H]1[C@@]3(C)CC[C@H](O[C@@H]4O[C@H](CO)[C@@H](O)[C@H](O)[C@H]4O[C@@H]4O[C@H](CO)[C@@H](O)[C@H](O)[C@H]4O)C(C)(C)[C@@H]3CC[C@]12C` [Ginsenoside Rc], the Tmax amounted to 0.67 h and the half-life was 4.32 ± 2.1 h.

Take `CC(C)=CCC[C@](C)(O[C@@H]1O[C@H](CO[C@@H]2OC[C@H](O)[C@H](O)[C@H]2O)[C@@H](O)[C@H](O)[C@H]1O)[C@H]1CC[C@]2(C)[C@@H]1[C@H](O)C[C@@H]1[C@@]3(C)CC[C@H](O[C@@H]4O[C@H](CO)[C@@H](O)[C@H](O)[C@H]4O[C@@H]4O[C@H](CO)[C@@H](O)[C@H](O)[C@H]4O)C(C)(C)[C@@H]3CC[C@]12C` [Ginsenoside Rb2]: the Tmax amounted to 1.5 ± 0.06 h and the half-life is 10.1 ± 4.53 h.

Turning to `CC(C)=CCC[C@](C)(O[C@@H]1O[C@H](CO)[C@@H](O)[C@H](O)[C@H]1O)[C@H]1CC[C@]2(C)[C@@H]1[C@H](O)C[C@@H]1[C@@]3(C)CC[C@H](O)C(C)(C)[C@@H]3[C@@H](O[C@@H]3O[C@H](CO)[C@@H](O)[C@H](O)[C@H]3O)C[C@]12C` [Ginsenoside Rg1], the Tmax worked out at 0.67 h and the half-life is 8.69 ± 3.17 h.

The series is the same for the next values; noted with them: rat plasma, QLQX suspension […] intragastrically, mean ± SD.
On to `CCN1C[C@]2(COC)[C@H](O)C[C@H](OC)[C@@]34[C@@H]5C[C@@]6(O)[C@H](OC(=O)c7ccccc7)[C@@H]5[C@@](O)([C@@H]([C@H](OC)[C@H]23)[C@@H]14)[C@@H](O)[C@@H]6OC` [Benzoylaconine], for which the Tmax is 1.00 ± 0.00 and the t1/2 worked out at 18.63 ± 7.20.

As for `COC[C@]12CN(C)C3[C@@H]4[C@H](OC)[C@H]1[C@@]3([C@@H](OC)C[C@H]2O)[C@@H]1C[C@@]2(O)[C@H](OC(=O)c3ccccc3)[C@@H]1[C@]4(O)[C@@H](O)[C@@H]2OC` [Benzoylmesaconine], the Tmax was 0.67 ± 0.11 and the t1/2 stood at 8.23 ± 2.02.

On to `COC[C@]12CN(C)[C@@H]3[C@@H]4[C@H](OC)[C@H]1[C@@]3([C@@H](OC)C[C@H]2O)[C@@H]1C[C@@]2(O)[C@H](OC(=O)c3ccccc3)[C@@H]1[C@]4(OC(C)=O)[C@@H](O)[C@@H]2OC` [Mesaconitine], for which the Tmax came to 0.17 ± 0.06 and the t1/2 was found to be 6.23 ± 1.23.

As for `CC(C)(O)C1CCC(C)(C2C(O)CC3(C)C4CC(OC5OC(CO)C(O)C(O)C5O)C5C(C)(C)C(OC6OCC(O)C(O)C6O)CCC56CC46CCC23C)O1` (centres unmarked) [Astragaloside], the Tmax was determined as 0.67 ± 0.00 and the t1/2 is 5.74 ± 0.78.

Take `COC[C@@]12CC[C@H](OC)[C@]34C([C@H]([C@H](OC)[C@H]13)[C@]1(O)[C@H]3[C@@H](OC(=O)c5ccccc5)[C@](O)(C[C@H]34)[C@@H](OC)[C@@H]1O)N(C)C2` [Benzoylhypaconine]: the Tmax was found to be 0.67 ± 0.00 and the t1/2 came out at 12.88 ± 3.47.

Experiment in another series: not given
On the set-up: unit not given beside the values. The conditions noted are these: rat, in vivo, po.
Salvianolic acid B: the “AUC0∼t” value was 818.47 ± 249.00 and the “AUC0∼∞” value is on record as 980.47 ± 112.07.

Regarding `COc1ccc([C@@H]2CC(=O)c3c(O)cc(O[C@@H]4O[C@H](CO[C@@H]5O[C@@H](C)[C@H](O)[C@@H](O)[C@H]5O)[C@@H](O)[C@H](O)[C@H]4O)cc3O2)cc1O` [Hesperidin], the “AUC0∼t” value is listed as 154.32 ± 66.50 and the “AUC0∼∞” value came to 187.77 ± 34.98.

Regarding `COc1ccc(-c2coc3cc(O[C@@H]4O[C@H](CO)[C@@H](O)[C@H](O)[C@H]4O)ccc3c2=O)cc1O` [Calycosin-7-glucoside], the “AUC0∼t” value turned out to be 103.26 ± 47.63 and the “AUC0∼∞” value stood at 120.71 ± 50.71.

Consider `COc1cc(/C=C/C(=O)OCC[N+](C)(C)C)cc(OC)c1O.O=S(=O)([O-])O` [Sinapine bisulfate], for which the “AUC0∼t” value turned out to be 3.98 ± 1.21 and the “AUC0∼∞” value came out at 8.76 ± 2.85.

In the case of `O=C(O)[C@H](O)Cc1ccc(O)c(O)c1` [Danshensu], the “AUC0∼t” value was 290.92 ± 68.38 and the “AUC0∼∞” value is given as 390.90 ± 66.50.

With `CC(C)=CCC[C@](C)(O)[C@H]1CC[C@]2(C)[C@@H]1[C@H](O)C[C@@H]1[C@@]3(C)CC[C@H](O[C@@H]4O[C@H](CO)[C@@H](O)[C@H](O)[C@H]4O[C@@H]4O[C@H](CO)[C@@H](O)[C@H](O)[C@H]4O)C(C)(C)[C@@H]3CC[C@]12C` [Ginsenoside Rg3], the “AUC0∼t” value was 67.13 ± 27.93 and the “AUC0∼∞” value is given as 89.81 ± 34.43.
